Data from PubChem BioAssay AID1963868 (Molecular Pharmacology Branch, DTP, NCI, 2024).

System: KRAS PDC tumor spheroids (HUVEC+MSC), viability
Experiment: Anticancer human tumor 254851-301-R-J1-PDC patient-derived colon carcinoma cell line growth inhibition [KRAS2]
Conditions: for IC50: curve of first compound; for viability, T/C: stronger effect = lower value
Outline: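 KRAS-mutant tumor cells were grown as spheroids with HUVEC endothelial cells and human MSCs as stroma. Targeted agents were tested alone and with KRAS pathway inhibitors. Doses started at or near clinical Cmax, or 10 microM, descending half-log.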

[1] = second compound 0.0316 µM, first compound 0.0316 µM
[2] = second compound 0.0316 µM, first compound 0.1 µM
[3] = second compound 0.1 µM, first compound 0.01 µM
[4] = second compound 0.1 µM, first compound 0.0316 µM
[5] = second compound 0.1 µM, first compound 0.1 µM
[6] = second compound 0.316 µM, first compound 0.01 µM
[7] = second compound 0.316 µM, first compound 0.0316 µM
[8] = second compound 0.316 µM, first compound 0.1 µM
[9] = second compound 1 µM, first compound 0.01 µM
[10] = second compound 1 µM, first compound 0.0316 µM
[11] = second compound 1 µM, first compound 0.1 µM
[12] = second compound 3.16 µM, first compound 0.01 µM
[13] = second compound 3.16 µM, first compound 0.0316 µM
[14] = second compound 3.16 µM, first compound 0.1 µM
[15] = second compound 0.1 µM, first compound 0.316 µM
[16] = second compound 0.1 µM, first compound 1 µM
[17] = second compound 0.1 µM, first compound 3.16 µM
[18] = second compound 0.316 µM, first compound 0.316 µM
[19] = second compound 0.316 µM, first compound 1 µM
[20] = second compound 0.316 µM, first compound 3.16 µM
[21] = second compound 1 µM, first compound 0.316 µM
[22] = second compound 1 µM, first compound 1 µM
[23] = second compound 1 µM, first compound 3.16 µM
[24] = second compound 3.16 µM, first compound 0.316 µM
[25] = second compound 3.16 µM, first compound 1 µM
[26] = second compound 3.16 µM, first compound 3.16 µM
[27] = second compound 10 µM, first compound 0.0316 µM
[28] = second compound 10 µM, first compound 0.1 µM
[29] = second compound 10 µM, first compound 0.316 µM
[30] = second compound 10 µM, first compound 1 µM
[31] = second compound 10 µM, first compound 3.16 µM
[32] = second compound 0.1 µM, first compound 10 µM
[33] = second compound 0.316 µM, first compound 10 µM
[34] = second compound 1 µM, first compound 10 µM
[35] = second compound 3.16 µM, first compound 10 µM
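Note: spheroids exposed to compounds for seven days before readout.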
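Throughout, for viability, T/C: 100% = DMSO vehicle control luminescence of the spheroids.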

CC(C)n1nc(-c2ccc3oc(N)nc3c2)c2c(N)ncnc21 + C=CC(=O)N1CCN(c2nc(OCC3CCCN3C)nc3c2CCN(c2cccc4cccc(C)c24)C3)CC1CC#N
IC50 (second compound 0.0316 µM): 15.3 nM
IC50 (second compound 0.1 µM): 23.2 nM
IC50 (second compound 0.316 µM): 15.3 nM
IC50 (second compound 1 µM): 14.1 nM
IC50 (second compound 3.16 µM): 2.27 nM
viability, T/C (second compound 0.0316 µM, first compound 0.000316 µM): 118%
viability, T/C (second compound 0.0316 µM, first compound 0.001 µM): 109%
viability, T/C (second compound 0.0316 µM, first compound 0.00316 µM): 87.6%
viability, T/C (second compound 0.0316 µM, first compound 0.01 µM): 63.1%
viability, T/C [1]: 30.1%
viability, T/C [2]: 21.1%
viability, T/C (second compound 0.1 µM, first compound 0.000316 µM): 113%
viability, T/C (second compound 0.1 µM, first compound 0.001 µM): 115%
viability, T/C (second compound 0.1 µM, first compound 0.00316 µM): 90.6%
viability, T/C [3]: 68.1%
viability, T/C [4]: 45.2%
viability, T/C [5]: 22.3%
viability, T/C (second compound 0.316 µM, first compound 0.000316 µM): 111%
viability, T/C (second compound 0.316 µM, first compound 0.001 µM): 115%
viability, T/C (second compound 0.316 µM, first compound 0.00316 µM): 101%
viability, T/C [6]: 61%
viability, T/C [7]: 31.6%
viability, T/C [8]: 23.6%
viability, T/C (second compound 1 µM, first compound 0.000316 µM): 108%
viability, T/C (second compound 1 µM, first compound 0.001 µM): 118%
viability, T/C (second compound 1 µM, first compound 0.00316 µM): 83%
viability, T/C [9]: 58.8%
viability, T/C [10]: 34.6%
viability, T/C [11]: 23.1%
viability, T/C (second compound 3.16 µM, first compound 0.000316 µM): 86%
viability, T/C (second compound 3.16 µM, first compound 0.001 µM): 52.7%
viability, T/C (second compound 3.16 µM, first compound 0.00316 µM): 56.7%
viability, T/C [12]: 23.9%
viability, T/C [13]: 29.2%
viability, T/C [14]: 12.6%

CC(=O)OC12COC1CC(O)C1(C)C(=O)C(O)C3=C(C)C(OC(=O)C(O)C(NC(=O)OC(C)(C)C)c4ccccc4)CC(O)(C(OC(=O)c4ccccc4)C21)C3(C)C (stereo not drawn) + C=CC(=O)N1CCN(c2nc(=O)n(-c3c(C)ccnc3C(C)C)c3nc(-c4c(O)cccc4F)c(F)cc23)C(C)C1
IC50 (second compound 0.1 µM): 259 nM
IC50 (second compound 0.316 µM): 243 nM
IC50 (second compound 1 µM): 244 nM
IC50 (second compound 3.16 µM): 253 nM
IC50 (second compound 10 µM): 208 nM
viability, T/C [3]: 104%
viability, T/C [4]: 94.6%
viability, T/C [5]: 74.4%
viability, T/C [15]: 44.6%
viability, T/C [16]: 30.5%
viability, T/C [17]: 26.7%
viability, T/C [6]: 90.9%
viability, T/C [7]: 98%
viability, T/C [8]: 70.8%
viability, T/C [18]: 44.9%
viability, T/C [19]: 29.8%
viability, T/C [20]: 27.4%
viability, T/C [9]: 88.1%
viability, T/C [10]: 84.5%
viability, T/C [11]: 68.2%
viability, T/C [21]: 45%
viability, T/C [22]: 30%
viability, T/C [23]: 26.5%
viability, T/C [12]: 105%
viability, T/C [13]: 93.5%
viability, T/C [14]: 70.2%
viability, T/C [24]: 45.7%
viability, T/C [25]: 30.6%
viability, T/C [26]: 27.5%
viability, T/C (second compound 10 µM, first compound 0.01 µM): 93.5%
viability, T/C [27]: 87.1%
viability, T/C [28]: 70.9%
viability, T/C [29]: 38.1%
viability, T/C [30]: 26.1%
viability, T/C [31]: 24.1%

COc1cc(OC)cc(N(CCNC(C)C)c2ccc3ncc(-c4cnn(C)c4)nc3c2)c1
viability, T/C (compound 0.0316 µM): 107% [middle of 5 runs]
viability, T/C (compound 0.1 µM): 100% [middle of 5 runs]
viability, T/C (compound 0.316 µM): 96.7% [middle of 5 runs]

CC1OCC2(CCN(c3cnc(Sc4ccnc(N)c4Cl)c(N)n3)CC2)C1N (stereo not drawn) + COc1cc2nc(C)nc(NC(C)c3cc(N)cc(C(F)(F)F)c3)c2cc1OC1CCOC1
IC50 (second compound 0.1 µM): > 10000 nM
IC50 (second compound 0.316 µM): > 10000 nM
IC50 (second compound 1 µM): > 10000 nM
IC50 (second compound 3.16 µM): > 10000 nM
IC50 (second compound 10 µM): > 10000 nM
viability, T/C [4]: 118%
viability, T/C [5]: 102%
viability, T/C [15]: 91.7%
viability, T/C [16]: 78.3%
viability, T/C [17]: 82.6%
viability, T/C [32]: 75.2%
viability, T/C [7]: 105%
viability, T/C [8]: 99.9%
viability, T/C [18]: 107%
viability, T/C [19]: 80%
viability, T/C [20]: 80.7%
viability, T/C [33]: 76.7%
viability, T/C [10]: 98.7%
viability, T/C [11]: 109%
viability, T/C [21]: 103%
viability, T/C [22]: 78.4%
viability, T/C [23]: 78.6%
viability, T/C [34]: 70.3%
viability, T/C [13]: 83.8%
viability, T/C [14]: 87.8%
viability, T/C [24]: 78.6%
viability, T/C [25]: 69.8%
viability, T/C [26]: 80%
viability, T/C [35]: 62.8%
viability, T/C [27]: 76.4%
viability, T/C [28]: 82.5%
viability, T/C [29]: 70.9%
viability, T/C [30]: 72%
viability, T/C [31]: 64.4%
viability, T/C (second compound 10 µM, first compound 10 µM): 64.3%

CCNC(=O)CC1N=C(c2ccc(Cl)cc2)c2cc(OC)ccc2-n2c(C)nnc21 (stereo not drawn) + C=CC(=O)N1CCN(c2nc(OCC3CCCN3C)nc3c2CCN(c2cccc4cccc(C)c24)C3)CC1CC#N
IC50 (second compound 0.0316 µM): > 10000 nM
IC50 (second compound 0.1 µM): > 10000 nM
IC50 (second compound 0.316 µM): > 10000 nM
IC50 (second compound 1 µM): 3640 nM
IC50 (second compound 3.16 µM): < 31.6 nM
viability, T/C [1]: 98.7%
viability, T/C [2]: 90.4%
viability, T/C (second compound 0.0316 µM, first compound 0.316 µM): 88.5%
viability, T/C (second compound 0.0316 µM, first compound 1 µM): 92.2%
viability, T/C (second compound 0.0316 µM, first compound 3.16 µM): 80.6%
viability, T/C (second compound 0.0316 µM, first compound 10 µM): 66.9%
viability, T/C [4]: 102%
viability, T/C [5]: 87.8%
viability, T/C [15]: 94.6%
viability, T/C [16]: 78.9%
viability, T/C [17]: 73.5%
viability, T/C [32]: 68.9%
viability, T/C [7]: 105%
viability, T/C [8]: 92.9%
viability, T/C [18]: 94.7%
viability, T/C [19]: 72.6%
viability, T/C [20]: 68%
viability, T/C [33]: 73.4%
viability, T/C [10]: 66.2%
viability, T/C [11]: 66.5%
viability, T/C [21]: 61.2%
viability, T/C [22]: 52.9%
viability, T/C [23]: 48.9%
viability, T/C [34]: 47.6%
viability, T/C [13]: 46.9%
viability, T/C [14]: 53.7%
viability, T/C [24]: 46.1%
viability, T/C [25]: 43.5%
viability, T/C [26]: 29.9%
viability, T/C [35]: 23.3%
